Assay: physchem
Type: physicochemical
Settings: not given
Protocol: Measurement of Log P values as provided herein was performed according to EEC directive 79/831 Annex V.A8 by HPLC (High Performance Liquid Chromatography) on reversed phase columns with the following methods: • ^[a]
If more than one Log P value is available within the same method, all the values are given and separated by “+”.
Lambda-max-values were determined using UV-spectra from 200 nm to 400 nm and the peak values of the chromatographic signals

Row | SMILES | LogP
1 | Cc1ccc(CC2CON=C(c3cc(Cl)ncc3Oc3cccc(Cl)c3)N2)c(C)c1 (single isomer, unassigned) [Compound I-011] | 4.53^[a]
2 | Cc1ccc(CC2CON=C(c3cc(Cl)ncc3Oc3cccc(Cl)c3)N2)c(C)c1 (single isomer, unassigned) [Compound I-012] | 4.53^[a]
3 | Cc1ccc(CC2CON=C(c3cc(Cl)ncc3Oc3cccc(C4CC4)c3)N2)c(C)c1 (single isomer, unassigned) [Compound I-019] | 4.89^[a]
4 | Cc1ccc(CC2CON=C(c3cc(Cl)ncc3Oc3cccc(C4CC4)c3)N2)c(C)c1 (single isomer, unassigned) [Compound I-020] | 4.89^[a]
5 | Cc1ccc(CC2CON=C(c3cc(Cl)ncc3Oc3cccc(C4CC4)c3F)N2)c(C)c1 (single isomer, unassigned) [Compound I-021] | 4.93^[a]
6 | Cc1ccc(CC2CON=C(c3cc(Cl)ncc3Oc3cccc(C4CC4)c3F)N2)c(C)c1 (single isomer, unassigned) [Compound I-022] | 4.93^[a]
7 | O=C(NC(CON1C(=O)c2ccccc2C1=O)Cc1ccc(Br)cc1Cl)c1cc(Cl)ncc1Oc1cccc(C2CC2)c1 (stereo not drawn) [3-02] | 5.75^[a]
8 | O=C(NC(CON1C(=O)c2ccccc2C1=O)Cc1ccc(Cl)cc1Cl)c1cc(Cl)ncc1Oc1cccc(C2CC2)c1 (stereo not drawn) [3-03] | 5.62^[a]
9 | O=C(NC(CON1C(=O)c2ccccc2C1=O)Cc1ccc(Cl)cc1Cl)c1cc(Cl)ncc1Oc1cccc(C2CC2)c1F (stereo not drawn) [3-04] | 5.54^[a]
10 | O=C(NC(CON1C(=O)c2ccccc2C1=O)Cc1ccc(Br)cc1Cl)c1cc(Cl)ncc1Oc1cccc(C2CC2)c1F (stereo not drawn) [3-05] | 5.62^[a]
11 | Cc1ccc(CC(CON2C(=O)c3ccccc3C2=O)NC(=O)c2cc(Cl)ncc2Oc2cccc(C3CC3)c2F)c(C)c1 (stereo not drawn) [3-06] | 5.38^[a]
12 | Cc1cccc(Oc2cnc(Cl)cc2C(=O)NC(CON2C(=O)c3ccccc3C2=O)Cc2ccc(C)cc2C)c1 (stereo not drawn) [3-07] | 5.16^[a]
13 | COc1cccc(Oc2cnc(Cl)cc2C(=O)NC(CON2C(=O)c3ccccc3C2=O)Cc2ccc(Br)cc2Cl)c1 (stereo not drawn) [3-08] | 5.05^[a]
14 | COc1cccc(Oc2cnc(Cl)cc2C(=O)NC(CON2C(=O)c3ccccc3C2=O)Cc2ccc(C)cc2C)c1 (stereo not drawn) [3-09] | 4.80^[a]
15 | O=C(NC(CON1C(=O)c2ccccc2C1=O)Cc1ccc(Br)cc1Cl)c1cc(Cl)ncc1Oc1cccc(C(F)F)c1 (stereo not drawn) [3-10] | 5.00^[a]
16 | Cc1ccc(CC(CON2C(=O)c3ccccc3C2=O)NC(=O)c2cc(Cl)ncc2Oc2cccc(C(F)F)c2)c(C)c1 (stereo not drawn) [3-11] | 4.69^[a]
17 | Cc1ccc(CC(CON2C(=O)c3ccccc3C2=O)NC(=O)c2cc(Cl)ncc2Oc2cccc(Cl)c2)c(C)c1 (stereo not drawn) [3-12] | 5.11^[a]
18 | Cc1ccc(CC(CON2C(=O)c3ccccc3C2=O)NC(=O)c2cc(Cl)ncc2Oc2cccc(C(F)(F)F)c2)c(C)c1 (stereo not drawn) [3-13] | 5.20^[a]
19 | NOCC(Cc1ccc(Br)cc1Cl)NC(=O)c1cc(Cl)ncc1Oc1cccc(C2CC2)c1 (stereo not drawn) [4-02] | 4.15^[a]
20 | NOCC(Cc1ccc(Cl)cc1Cl)NC(=O)c1cc(Cl)ncc1Oc1cccc(C2CC2)c1 (stereo not drawn) [4-03] | 4.06^[a]
21 | NOCC(Cc1ccc(Cl)cc1Cl)NC(=O)c1cc(Cl)ncc1Oc1cccc(C2CC2)c1F (stereo not drawn) [4-04] | 3.96^[a]
22 | NOCC(Cc1ccc(Br)cc1Cl)NC(=O)c1cc(Cl)ncc1Oc1cccc(C2CC2)c1F (stereo not drawn) [4-05] | 4.08^[a]
23 | Cc1ccc(CC(CON)NC(=O)c2cc(Cl)ncc2Oc2cccc(C3CC3)c2F)c(C)c1 (stereo not drawn) [4-06] | 3.72^[a]
24 | Cc1cccc(Oc2cnc(Cl)cc2C(=O)NC(CON)Cc2ccc(C)cc2C)c1 (stereo not drawn) [4-07] | 3.37^[a]
25 | COc1cccc(Oc2cnc(Cl)cc2C(=O)NC(CON)Cc2ccc(Br)cc2Cl)c1 (stereo not drawn) [4-08] | 3.39^[a]

Row | SMILES | LogP
26 | COc1cccc(Oc2cnc(Cl)cc2C(=O)NC(CON)Cc2ccc(C)cc2C)c1 (stereo not drawn) [4-09] | 3.08^[a]
27 | NOCC(Cc1ccc(Br)cc1Cl)NC(=O)c1cc(Cl)ncc1Oc1cccc(C(F)F)c1 (stereo not drawn) [4-10] | 3.46^[a]
28 | Cc1ccc(CC(CON)NC(=O)c2cc(Cl)ncc2Oc2cccc(C(F)F)c2)c(C)c1 (stereo not drawn) [4-11] | 3.09^[a]
29 | Cc1ccc(CC(CON)NC(=O)c2cc(Cl)ncc2Oc2cccc(Cl)c2)c(C)c1 (stereo not drawn) [4-12] | 3.35^[a]
30 | Cc1ccc(CC(CCN)NC(=O)c2cc(Cl)ncc2Oc2cccc(C(F)(F)F)c2)c(C)c1 (stereo not drawn) [4-13] | 2.41^[a]
31 | Cc1ccc(CC(CCNC(c2ccccc2)(c2ccccc2)c2ccccc2)NC(=O)c2cc(Cl)ncc2Oc2cccc(C(F)(F)F)c2)c(C)c1 (stereo not drawn) [4-14] | 5.35^[a]
32 | Cc1ccc(CC2CON=C(c3cc(Cl)ncc3Br)N2)c(C)c1 (stereo not drawn) [7-01] | 3.31^[a]
33 | Clc1ccc(CC2CON=C(c3cc(Cl)ncc3Br)N2)c(Cl)c1 (stereo not drawn) [7-04] | 3.45^[a]
34 | Cc1ccc(CC2CON=C(c3cc(Cl)ncc3Br)N2)c(Cl)c1 (stereo not drawn) [7-05] | 3.38^[a]
35 | Cc1cc(Cl)ccc1CC1CON=C(c2cc(Cl)ncc2Br)N1 (stereo not drawn) [7-06] | 3.44^[a]
36 | Cc1cccc(CC2CON=C(c3cc(Cl)ncc3Br)N2)c1Cl (stereo not drawn) [7-07] | 3.44^[a]
37 | Cc1ccc(Cl)c(CC2CON=C(c3cc(Cl)ncc3Br)N2)c1 (stereo not drawn) [7-09] | 3.46^[a]
38 | Cc1ccc(CC(N)CC(N)=O)c(C)c1 (stereo not drawn) [13-09] | 0.69^[a]
39 | Cc1ccc(CC(CCl)NC(=O)c2c(Oc3cccc(C(F)(F)F)c3)cnc(Cl)c2F)c(C)c1 (stereo not drawn) [14-01] | 5.03^[a]
40 | Cc1ccc(CC(CCl)NC(=O)c2cc(Cl)ncc2Oc2cccc(C(F)(F)F)c2)c(C)c1 (stereo not drawn) [14-02] | 5.32^[a]
41 | Cc1ccc(CC(CCl)NC(=O)c2cc(Cl)ncc2Oc2cccc(C(F)(F)F)c2)cc1 (stereo not drawn) [14-03] | 5.00^[a]
42 | Cc1ccc(CC(CCl)NC(=O)c2c(Oc3cccc(C(F)(F)F)c3)cnc(Cl)c2I)c(C)c1 (stereo not drawn) [14-04] | 5.18^[a]
43 | COc1cc(C(=O)NC(CCl)Cc2ccc(C)cc2C)c(Oc2cccc(C(F)(F)F)c2)cn1 (stereo not drawn) [14-05] | 5.26^[a]
44 | Cc1ccc(CC(CCl)NC(=O)c2cc(Cl)nc(F)c2Oc2cccc(C(F)(F)F)c2)c(C)c1 (stereo not drawn) [14-06] | 5.45^[a]
45 | Cc1ccc(CC(CCl)NC(=O)c2cc(Cl)nc(Cl)c2Oc2cccc(C(F)(F)F)c2)c(C)c1 (stereo not drawn) [14-07] | 5.45^[a]
46 | Cc1cc(Br)ccc1CC(CCl)NC(=O)c1cc(Cl)ncc1Oc1cccc(C(F)(F)F)c1 (stereo not drawn) [14-08] | 5.31^[a]
47 | O=C(NC(CCl)Cc1ccc(C(F)(F)F)cc1Cl)c1cc(Cl)ncc1Oc1cccc(C(F)(F)F)c1 (stereo not drawn) [14-09] | 5.36^[a]
48 | O=C(NC(CCl)Cc1csc(C(F)(F)F)c1)c1cc(Cl)ncc1Oc1cccc(C(F)(F)F)c1 (stereo not drawn) [14-10] | 4.96^[a]
49 | O=C(NC(CCl)Cc1csc(Cl)c1)c1cc(Cl)ncc1Oc1cccc(C(F)(F)F)c1 (stereo not drawn) [14-11] | 4.96^[a]
50 | Cc1ccc(C(CCl)NC(=O)c2cc(Cl)ncc2Oc2cccc(C(F)(F)F)c2)cc1 (stereo not drawn) [14-12] | 4.49^[a]

Row | SMILES | LogP
51 | Cc1ccc(CC(CCl)NC(=NO)c2c(Oc3cccc(C(F)(F)F)c3)cnc(Cl)c2F)c(C)c1 (stereo not drawn) [16-01] | 5.74^[a]
52 | Cc1ccc(CC(CCl)NC(=NO)c2cc(Cl)ncc2Oc2cccc(C(F)(F)F)c2)c(C)c1 (stereo not drawn) [16-03] | 4.80^[a]
53 | Cc1ccc(CC(CCl)NC(=NO)c2cc(Cl)ncc2Oc2cccc(C(F)(F)F)c2)cc1 (stereo not drawn) [16-04] | 4.59^[a]
54 | Cc1ccc(CC(CCl)NC(=NO)c2c(Oc3cccc(C(F)(F)F)c3)cnc(Cl)c2I)c(C)c1 (stereo not drawn) [16-05] | 5.28^[a]
55 | Cc1ccc(CC(CCl)NC(=NO)c2cc(Cl)nc(F)c2Oc2cccc(C(F)(F)F)c2)c(C)c1 (stereo not drawn) [16-06] | 5.16^[a]
56 | Cc1ccc(CC(CCl)NC(=NO)c2cc(Cl)nc(Cl)c2Oc2cccc(C(F)(F)F)c2)c(C)c1 (stereo not drawn) [16-07] | 5.35^[a]
57 | ON=C(NC(CCl)Cc1ccc(C(F)(F)F)cc1Cl)c1cc(Cl)ncc1Oc1cccc(C(F)(F)F)c1 (stereo not drawn) [16-09] | 4.97^[a]
58 | ON=C(NC(CCl)Cc1csc(C(F)(F)F)c1)c1cc(Cl)ncc1Oc1cccc(C(F)(F)F)c1 (stereo not drawn) [16-10] | 4.59^[a]
59 | ON=C(NC(CCl)Cc1csc(Cl)c1)c1cc(Cl)ncc1Oc1cccc(C(F)(F)F)c1 (stereo not drawn) [16-11] | 4.48^[a]
60 | Cc1ccc(C(CCl)NC(=NO)c2cc(Cl)ncc2Oc2cccc(C(F)(F)F)c2)cc1 (stereo not drawn) [16-12] | 4.19^[a]
61 | Cc1ccc(CC(CCl)NC(=O)c2cc(Cl)ncc2Br)c(Cl)c1 (stereo not drawn) [17-02] | 3.94^[a]
62 | COc1cc(C(=O)NC(CCl)Cc2ccc(C)cc2Cl)c(Br)cn1 (stereo not drawn) [17-03] | 3.94^[a]
63 | Cc1cc(Cl)ccc1CC(CCl)NC(=O)c1cc(Cl)ncc1Br (stereo not drawn) [17-04] | 3.98^[a]
64 | Cc1cccc(CC(CCl)NC(=O)c2cc(Cl)ncc2Br)c1Cl (stereo not drawn) [17-05] | 3.97 ^[a]
65 | Cc1ccc(CC(CCl)NC(=NO)c2cc(Cl)ncc2Br)c(Cl)c1 (stereo not drawn) [18-02] | 3.85^[a]
66 | COc1cc(C(=NO)NC(CCl)Cc2ccc(C)cc2Cl)c(Br)cn1 (stereo not drawn) [18-03] | 4.12^[a]
67 | O=C(O)c1c(Oc2cccc(C(F)(F)F)c2)cnc(Cl)c1F [Compound 1-01] | 2.28^[a]
68 | CC(=O)c1cc(C(=O)O)c(Oc2cccc(C(F)(F)F)c2)cn1 [Compound 1-02] | 2.54^[a]
69 | COC(=O)c1cc(C#C[Si](C)(C)C)ncc1Oc1cccc(C(F)(F)F)c1 [Compound 1-03] | 5.35^[a]
70 | COC(=O)c1cc(C(C)=O)ncc1Oc1cccc(C(F)(F)F)c1 [Compound 1-04] | 3.59^[a]
71 | C=C(OCC)c1cc(C(=O)OC)c(Oc2cccc(C(F)(F)F)c2)cn1 [Compound 1-05] | 4.70^[a]
72 | O=C(O)c1cc(Cl)ncc1Oc1cccc(C2CC2)c1F [Compound 1-06] | 2.97^[a]
73 | Cc1cccc(Oc2cnc(Cl)cc2C(=O)O)c1 [Compound 1-08] | 2.60^[a]
74 | COc1cccc(Oc2cnc(Cl)cc2C(=O)O)c1 [Compound 1-09] | 2.34^[a]

Same assay, conditions: Table 3, compounds of formula (1); method [a]: LC-UV, acidic range, 0.1% formic acid in water and acetonitrile

Row | SMILES | chromatographic logP
75 | COC(=O)c1cc(Cl)ncc1Oc1cccc(C(F)(F)F)c1 [Compound 1-07, methyl 2-chloro-5-[3-(trifluoromethyl)phenoxy]isonicotinate] | 3.84

— patent US12534456B2, “Heterocyclyl pyridines as novel fungicides” (Bayer Aktiengesellschaft, priority 2020, dated 2026)
